Experimental data: article PMC7824769, “Identification of Small Molecules Blocking the Pseudomonas aeruginosa Type III Secretion System Protein PcrV” (Biomolecules, 2021)

Molecular target: PcrV (Pseudomonas aeruginosa, UniProt G3XD49)
Experiment: SPR library screening at 100 µM, PcrV versus deactivated control protein CAII
Type: binding
Conditions: Figure 2
Experimental: The SPR screening was performed using the ProteOn^TM XPR36 Protein Interaction Array System (Bio-Rad Laboratories Inc., Hercules, CA, USA) with ProteOn GLH sensor chip (Bio-Rad Laboratories Inc., Hercules, CA, USA), and the results were analyzed with the ProteOn Manager software^TM (Bio-Rad Laboratories Inc., Hercules, CA, USA), Excel 2016 (Microsoft Office), and GraphPad Prism 7.04. All SPR experiments were performed at 25 °C. The multichannel module of the ProteOn system was in the vertical position during protein immobilization. The proteins were attached to the surface of a GLH sensor chip via amine coupling chemistry. A buffer scouting was performed to elucidate the optimal binding conditions of PcrV to the GLH sensor chip. First, channels 1–4 on the chip surface were activated using a 1:1 mixture of 40 mM 1-ethyl-3-(3-dimethylaminopropyl)carbodiimide hydrochloride (EDAC) (Bio-Rad Laboratories Inc., Hercules, CA, USA) and 10 mM N-hydroxysulfosuccinimide (sulfo-NHS, Bio-Rad Laboratories Inc., Hercules, CA, USA) for 300 s at 30 µL/min. Next, the proteins PcrV (33,398.6 Da, 6.37 mg/mL) was diluted in 10 mM NaOAc (pH 4, 4.5, and 5) to 0.05 mg/mL. PcrV was immobilized in channel 1–3 for 540 s at 30 µL/min. […] The final amount of immobilized protein was measured in resonance units (RU) relative to the signal of the baseline prior activation. […]

Sequence of PcrV (G3XD49 entry or part of it): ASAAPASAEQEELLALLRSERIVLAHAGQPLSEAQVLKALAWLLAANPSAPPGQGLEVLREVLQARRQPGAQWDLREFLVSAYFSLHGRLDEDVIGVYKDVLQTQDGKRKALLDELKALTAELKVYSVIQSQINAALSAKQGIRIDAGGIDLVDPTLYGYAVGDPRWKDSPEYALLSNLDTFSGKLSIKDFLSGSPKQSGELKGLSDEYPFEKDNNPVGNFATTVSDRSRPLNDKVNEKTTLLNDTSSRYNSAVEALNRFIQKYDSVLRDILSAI

Cc1c(Br)ccc(OCCCC(=O)O)c1C [Compound H1]
Selectivity of binding to PcrV over CAII in SPR screening: selective PcrV binders
